Values quoted from earlier work in patent US20040170688A1, “Enteric formulation of fluoxetin” (priority 2001, published 2004).

Conditions: published literature

Compound: CNCCC(Oc1ccc(C(F)(F)F)cc1)c1ccccc1 (stereo not drawn) [Fluoxetin, N-Methyl-3-phenyl-3-[(α,α,α-trifluorotolyl)oxyl] propylamine]
- elimination half-life: very long

Compound: NCCC(Oc1ccc(C(F)(F)F)cc1)c1ccccc1 (centres unmarked) [NorFluoxetin]
- elimination half-life: very long
